The values that follow come from US10214511B2, “Quinazolines as potassium ion channel inhibitors” (Bristol-Myers Squibb Company, priority 2009, dated 2019).

Like-named read-outs stand apart in the source and are kept apart here. A value given as a limit tells only on which side of the number the result lay.

What is called IC50 is the concentration that gives 50% inhibition.

One data set addresses Kv 1.5 (Homo sapiens (Human), UniProt P22460). The data set is described as follows: Kv1.5 (IKur) inhibition assay. The format is cell-based. The source says: Assays to determine the degree of activity of a compound as an IKur inhibitor are well known in the art and are described in references such as J. Gen. Physiol., 101(4):513-543 (April 1993), and Br. J. Pharmacol., 115(2):267-274 (May 1995).
Assays to determine the degree of activity of a compound as an inhibitor of other members of the Kv1 subfamily are also well known in the art. For example, inhibition of Kv1.1, Kv1.2 and Kv1.3 can be measured using procedures described by Grissmer, S. et al., Mol. Pharmacol., 45(6):1227-1234 (June 1994); inhibition of Kv1.4 can be measured using procedures described by Petersen, K. R. et al., Pflugers Arch., 437(3):381-392 (February 1999); inhibition of Kv1.6 can be measured using procedures described by Bowlby, M. R. et al., J. Neurophysiol. 73(6):2221-2229 (June 1995); and inhibition of Kv1.7 can be measured using procedures described by Kalman, K. et al., J. Biol. Chem., 273(10):5851-5857 (Mar. 6, 1998).
Compounds of the present invention were tested in one of the assays described immediately above and the results shown in Table 2 below were obtained.

For a further data set, the target named is JAK2 (Homo sapiens (Human), UniProt O60674). Put plainly: Caliper Kinase Assay. The format is biochemical. The conditions noted are these: ATP at Km, peptide 1.5 uM; read-out: LLE_JAK2 (IC50). The source says:
(§1) IC50 values were derived by non-linear regression analysis.

A short description of data set [1]: Brain penetration across species. The class given is in vivo.
The target of the next data set is ABL1 (Homo sapiens (Human), UniProt P00519). Put plainly: Caliper Kinase Assay. The class given is biochemical. The conditions noted are these: read-out: LLE_ABL1 (% INH, 50 uM).
ABL1, sequence (P00519 whole entry, species assumed): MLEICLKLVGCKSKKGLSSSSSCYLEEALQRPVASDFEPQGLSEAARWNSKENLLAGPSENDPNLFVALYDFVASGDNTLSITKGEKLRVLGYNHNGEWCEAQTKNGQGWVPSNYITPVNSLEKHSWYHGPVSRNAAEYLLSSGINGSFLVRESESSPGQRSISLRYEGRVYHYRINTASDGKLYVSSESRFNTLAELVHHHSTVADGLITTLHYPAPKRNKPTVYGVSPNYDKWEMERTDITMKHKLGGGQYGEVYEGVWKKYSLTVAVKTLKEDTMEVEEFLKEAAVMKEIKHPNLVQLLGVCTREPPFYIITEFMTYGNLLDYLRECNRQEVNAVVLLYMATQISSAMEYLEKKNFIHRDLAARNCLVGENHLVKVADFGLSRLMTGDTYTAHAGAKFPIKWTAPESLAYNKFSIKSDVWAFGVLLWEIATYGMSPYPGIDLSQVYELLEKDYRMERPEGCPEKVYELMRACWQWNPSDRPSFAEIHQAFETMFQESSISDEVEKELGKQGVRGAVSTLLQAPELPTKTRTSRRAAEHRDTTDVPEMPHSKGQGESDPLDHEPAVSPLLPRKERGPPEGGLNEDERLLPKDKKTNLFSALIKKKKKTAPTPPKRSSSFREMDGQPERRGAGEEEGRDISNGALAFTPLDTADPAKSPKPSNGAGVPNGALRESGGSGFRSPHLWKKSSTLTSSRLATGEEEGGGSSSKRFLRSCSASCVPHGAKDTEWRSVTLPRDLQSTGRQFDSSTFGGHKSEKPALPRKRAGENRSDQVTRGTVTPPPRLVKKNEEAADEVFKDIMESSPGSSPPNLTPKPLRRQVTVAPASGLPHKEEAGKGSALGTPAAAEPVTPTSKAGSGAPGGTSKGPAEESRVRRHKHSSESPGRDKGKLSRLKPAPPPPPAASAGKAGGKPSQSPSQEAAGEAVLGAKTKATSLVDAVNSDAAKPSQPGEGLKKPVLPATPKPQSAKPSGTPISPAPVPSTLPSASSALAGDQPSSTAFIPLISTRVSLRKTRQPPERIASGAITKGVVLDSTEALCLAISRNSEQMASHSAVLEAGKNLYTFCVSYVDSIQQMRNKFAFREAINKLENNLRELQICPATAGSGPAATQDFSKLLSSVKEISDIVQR
Text: as §1

Another data set deals with Flt3 (Homo sapiens (Human), UniProt P36888). Put plainly: Caliper Kinase Assay. The note with it: ATP at Km, peptide 1.5 uM; read-out: LLE Flt3 (IC50). The class given is biochemical.
Text: as §1

A further data set has as its target IGF1R (Homo sapiens (Human), UniProt P08069). Put plainly: Caliper Kinase Assay. The conditions noted are these: ATP at Km, peptide 1.5 uM. The format is biochemical.
Text: as §1

For the next data set, the target named is PIM1 (Homo sapiens (Human), UniProt P11309). The data set is described as follows: Caliper Kinase Assay. The class given is biochemical. The note with it: ATP at Km, peptide 1.5 uM.
PIM1, sequence (P11309 whole entry, species assumed): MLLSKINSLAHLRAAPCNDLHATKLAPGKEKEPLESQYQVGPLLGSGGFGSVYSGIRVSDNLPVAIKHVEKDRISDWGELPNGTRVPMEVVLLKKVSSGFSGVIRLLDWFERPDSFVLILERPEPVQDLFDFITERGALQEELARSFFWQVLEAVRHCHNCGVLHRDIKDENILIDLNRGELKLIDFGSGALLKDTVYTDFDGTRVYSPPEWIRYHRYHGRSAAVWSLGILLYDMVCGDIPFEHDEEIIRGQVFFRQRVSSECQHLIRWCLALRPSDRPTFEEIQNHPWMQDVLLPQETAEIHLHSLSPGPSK
Text: as §1

The target of the next data set is BTK (Homo sapiens (Human), UniProt Q06187). Put plainly: Caliper Kinase Assay. The format is biochemical. The conditions noted are these: ATP at Km, peptide 1.5 uM; read-out: LLE_BTK (IC50).
Another data set has as its target CK2A2 (Homo sapiens (Human), UniProt P19784). Put plainly: Caliper Kinase Assay. The format is biochemical. The conditions noted are these: ATP at Km, peptide 1.5 uM; read-out: LLE_CK2A2 (IC50).
The target of a further data set is JAK3 (Homo sapiens (Human), UniProt P52333). Put plainly: Caliper Kinase Assay. The format is biochemical. The conditions noted are these: ATP at Km, peptide 1.5 uM; read-out: LLE_JAK3 (IC50).
The target of a further data set is GSK3B (Homo sapiens (Human), UniProt P49841). The data set is described as follows: Caliper Kinase Assay. The class given is biochemical. The note with it: ATP at Km, peptide 1.5 uM; read-out: LLE GSK3B (IC50). As for the experimental part:
(§2) In addition, compounds of the present invention, such as particular compounds disclosed in the preceding examples, were evaluated for their effectiveness as inhibitors of kinase receptor activity.
(§3) The analyses were performed in U-bottom 384-well plates. The final assay volume was 30 μl prepared from 15 μl additions of enzyme and substrates (fluoresceinated peptide and ATP) and test compounds in assay buffer (20 mM HEPES pH 7.4, 10 mM MgCl2, 0.015% Brij35 and 4 mM DTT). The reaction was initiated by the combination of purified protein kinase with substrates and test compounds. The reaction was incubated at room temperature for 60 min. and terminated by adding 30 μl of 35 mM EDTA to each sample. The reaction mixture was analyzed on the Caliper LABCHIP® 3000 (Caliper, Hopkinton, Mass.) by electrophoretic separation of the fluorescent substrate and phosphorylated product. Inhibition data were calculated by comparison to no enzyme control reactions for 100% inhibition and vehicle-only reactions for 0% inhibition. The ATP was used at a final concentration equivalent to the Km and the peptide substrate concentration was 1.5 μM. […] Compounds were dissolved at 10 mM in dimethylsulfoxide (DMSO) and evaluated at eleven concentrations. IC50 values were derived by non-linear regression analysis.

A further data set has as its target IRAK-4 (Homo sapiens (Human), UniProt Q9NWZ3). The data set is described as follows: Caliper Kinase Assay. The format is biochemical. The note with it: ATP at Km, peptide 1.5 uM; read-out: LLE IRAK-4 (IC50). As for the experimental part: as §2, §3
Another data set concerns the target TPL2 (Homo sapiens (Human), UniProt P41279). Put plainly: Caliper Kinase Assay. The class given is biochemical. The conditions noted are these: ATP at Km, peptide 1.5 uM; read-out: LLE_TPL2 CAL (IC50). Here is the method: as §2, §3
The target of a further data set is TAK1 (Homo sapiens (Human), UniProt O43318). The data set is described as follows: Caliper Kinase Assay. The format is biochemical. The note with it: ATP at Km, peptide 1.5 uM; read-out: LLE_TAK1 (IC50).
TAK1, sequence (O43318 1-303): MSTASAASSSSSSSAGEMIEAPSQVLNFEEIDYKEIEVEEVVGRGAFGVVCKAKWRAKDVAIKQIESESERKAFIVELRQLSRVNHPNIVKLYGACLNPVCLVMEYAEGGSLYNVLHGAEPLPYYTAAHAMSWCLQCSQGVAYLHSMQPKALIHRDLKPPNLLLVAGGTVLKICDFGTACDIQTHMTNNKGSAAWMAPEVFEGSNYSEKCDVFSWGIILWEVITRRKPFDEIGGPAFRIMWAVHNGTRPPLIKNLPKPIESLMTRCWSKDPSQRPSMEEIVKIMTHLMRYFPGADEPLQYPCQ
Text: as §1

JAK2, sequence (O60674 whole entry, species assumed): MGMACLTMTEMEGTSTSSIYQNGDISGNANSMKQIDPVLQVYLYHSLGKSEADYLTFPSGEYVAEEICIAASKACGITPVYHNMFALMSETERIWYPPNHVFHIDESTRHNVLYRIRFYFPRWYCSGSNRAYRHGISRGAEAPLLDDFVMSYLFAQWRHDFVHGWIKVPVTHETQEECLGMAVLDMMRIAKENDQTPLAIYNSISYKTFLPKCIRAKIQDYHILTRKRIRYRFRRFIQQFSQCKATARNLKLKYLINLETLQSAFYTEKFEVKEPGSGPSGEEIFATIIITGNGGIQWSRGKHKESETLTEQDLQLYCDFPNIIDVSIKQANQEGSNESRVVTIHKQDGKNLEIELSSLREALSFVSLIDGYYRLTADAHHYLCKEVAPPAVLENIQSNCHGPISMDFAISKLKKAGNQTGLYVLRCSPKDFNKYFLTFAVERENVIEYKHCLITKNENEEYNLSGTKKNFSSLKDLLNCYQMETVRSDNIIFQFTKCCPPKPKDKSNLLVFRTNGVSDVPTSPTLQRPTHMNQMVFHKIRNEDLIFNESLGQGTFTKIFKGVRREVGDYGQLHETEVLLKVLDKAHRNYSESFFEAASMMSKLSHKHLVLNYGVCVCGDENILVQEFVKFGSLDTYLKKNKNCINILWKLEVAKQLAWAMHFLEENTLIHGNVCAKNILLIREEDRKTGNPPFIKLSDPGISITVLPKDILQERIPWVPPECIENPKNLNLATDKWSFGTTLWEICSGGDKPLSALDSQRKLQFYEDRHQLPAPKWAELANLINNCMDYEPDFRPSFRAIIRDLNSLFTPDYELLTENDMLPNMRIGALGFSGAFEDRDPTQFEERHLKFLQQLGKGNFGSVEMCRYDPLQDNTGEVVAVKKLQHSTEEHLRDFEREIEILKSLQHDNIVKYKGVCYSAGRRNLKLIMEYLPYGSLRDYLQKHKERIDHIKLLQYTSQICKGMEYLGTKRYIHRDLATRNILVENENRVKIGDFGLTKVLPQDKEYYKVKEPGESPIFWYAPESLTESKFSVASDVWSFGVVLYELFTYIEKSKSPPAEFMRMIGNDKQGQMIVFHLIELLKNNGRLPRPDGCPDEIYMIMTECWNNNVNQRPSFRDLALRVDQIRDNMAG
Kv 1.5, sequence (P22460 whole entry): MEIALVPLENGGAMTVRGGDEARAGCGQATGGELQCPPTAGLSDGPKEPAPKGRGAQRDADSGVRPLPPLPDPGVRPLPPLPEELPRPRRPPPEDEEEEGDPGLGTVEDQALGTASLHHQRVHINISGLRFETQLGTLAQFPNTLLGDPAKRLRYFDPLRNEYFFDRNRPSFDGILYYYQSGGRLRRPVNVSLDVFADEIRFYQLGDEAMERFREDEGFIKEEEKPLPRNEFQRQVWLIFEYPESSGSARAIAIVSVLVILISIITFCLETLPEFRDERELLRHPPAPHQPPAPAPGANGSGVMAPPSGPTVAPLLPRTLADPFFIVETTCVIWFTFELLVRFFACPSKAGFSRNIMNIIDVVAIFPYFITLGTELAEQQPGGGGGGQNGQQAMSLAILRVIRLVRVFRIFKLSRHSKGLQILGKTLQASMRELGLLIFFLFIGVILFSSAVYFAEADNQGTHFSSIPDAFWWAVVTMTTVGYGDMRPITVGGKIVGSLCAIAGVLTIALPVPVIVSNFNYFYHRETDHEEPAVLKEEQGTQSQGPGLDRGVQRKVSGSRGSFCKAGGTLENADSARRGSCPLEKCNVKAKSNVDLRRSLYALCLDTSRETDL
IGF1R, sequence (P08069 31-1367, species assumed): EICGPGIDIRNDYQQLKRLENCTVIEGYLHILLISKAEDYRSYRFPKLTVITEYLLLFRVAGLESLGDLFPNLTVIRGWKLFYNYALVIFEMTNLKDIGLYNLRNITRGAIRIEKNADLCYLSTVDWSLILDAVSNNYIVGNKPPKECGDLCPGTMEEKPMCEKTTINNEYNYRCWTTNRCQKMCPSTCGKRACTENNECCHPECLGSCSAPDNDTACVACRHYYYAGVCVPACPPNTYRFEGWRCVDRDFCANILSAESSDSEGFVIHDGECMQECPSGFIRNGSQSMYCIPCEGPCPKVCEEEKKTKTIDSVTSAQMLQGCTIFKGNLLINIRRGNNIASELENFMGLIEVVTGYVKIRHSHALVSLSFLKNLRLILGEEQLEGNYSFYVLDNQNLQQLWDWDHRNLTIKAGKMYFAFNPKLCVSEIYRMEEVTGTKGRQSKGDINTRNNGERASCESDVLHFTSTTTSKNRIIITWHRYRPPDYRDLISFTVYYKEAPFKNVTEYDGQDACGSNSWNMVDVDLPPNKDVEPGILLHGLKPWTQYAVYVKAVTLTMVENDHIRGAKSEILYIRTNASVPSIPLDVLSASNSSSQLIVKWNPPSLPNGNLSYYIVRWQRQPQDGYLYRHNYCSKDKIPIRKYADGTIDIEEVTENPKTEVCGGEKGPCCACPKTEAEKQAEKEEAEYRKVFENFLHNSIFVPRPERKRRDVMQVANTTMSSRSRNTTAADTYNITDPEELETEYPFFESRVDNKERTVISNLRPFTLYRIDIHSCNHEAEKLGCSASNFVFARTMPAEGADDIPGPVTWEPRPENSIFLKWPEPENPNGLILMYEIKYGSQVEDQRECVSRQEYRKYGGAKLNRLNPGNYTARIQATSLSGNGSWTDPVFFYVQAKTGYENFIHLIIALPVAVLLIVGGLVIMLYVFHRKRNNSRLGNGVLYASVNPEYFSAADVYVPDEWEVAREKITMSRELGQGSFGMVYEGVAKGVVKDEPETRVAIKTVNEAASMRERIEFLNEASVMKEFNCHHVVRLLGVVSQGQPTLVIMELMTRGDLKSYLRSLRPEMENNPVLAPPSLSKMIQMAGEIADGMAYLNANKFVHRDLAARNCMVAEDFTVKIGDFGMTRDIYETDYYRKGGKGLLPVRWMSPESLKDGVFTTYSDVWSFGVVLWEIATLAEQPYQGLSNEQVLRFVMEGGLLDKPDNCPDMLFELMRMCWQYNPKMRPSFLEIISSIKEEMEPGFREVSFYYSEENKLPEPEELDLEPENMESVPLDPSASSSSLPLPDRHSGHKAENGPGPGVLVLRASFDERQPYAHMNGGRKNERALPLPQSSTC

On Kv 1.5, `Clc1nc(Nc2nccs2)c2c(-c3ccccc3)cccc2n1` [Example 38] came in with an inhibition at 0.3 µM of 61.3%.
Still for that read-out and setting: then `Fc1ccc(CNc2nc(-c3cncnc3)nc3cccc(-c4ccccc4)c23)nc1` [Example 111], with 61.5%.
Still for that read-out and setting: under `c1ccc(-c2cccc3nc(-c4ccc5cc[nH]c5c4)nc(NCc4ccccn4)c23)cc1` [Example 46] stands 98.7%; under `CC(Nc1nc(Cl)nc2cccc(-c3ccccc3)c12)c1ccccc1` (stereo not drawn) [Example 130], 96.2%; under `Cc1nc(NCc2ccccn2)c2c(-c3ccccc3)cccc2n1` [Example 22], 60.4%.
Still for that read-out and setting: then `FC(F)(F)c1ccccc1CNc1nc(Cl)nc2cccc(-c3ccccc3)c12` [Example 137], with 55.6%.
`FC(F)(F)c1ccc(-c2cccc3nc(Cl)nc(NCc4ccccn4)c23)cc1` [Example 97] yielded an inhibition at 0.3 µM on Kv 1.5 of 98.7%.
The same measure, in the same setting: under `COc1cncc(-c2nc(NCc3ccccn3)c3c(-c4ccccc4)cccc3n2)c1` [Example 29] stands 65.3%; under `COc1ccc(-c2nc(NCc3ccccn3)c3c(-c4ccccc4)cccc3n2)cn1` [Example 105], 98.7%; under `c1ccc(CNc2nc(-c3cncnc3)nc3cccc(-c4ccccc4)c23)cc1` [Example 40], 59.8%.
Still for that read-out and setting: then `CN(C)c1ccc(-c2cccc3nc(Cl)nc(NCc4ccccn4)c23)cc1` [Example 108], with 98.1%.
The same measure, in the same setting: then `c1ccc(CNc2nc(-c3cncnc3)nc3cccc(-c4cccc(N5CCOCC5)c4)c23)nc1` [Example 107], with 50.3%.
The compound `c1ccc(-c2cccc3nc(-c4ccncc4)nc(NCc4ccccn4)c23)cc1` [Example 31] registered an inhibition at 0.3 µM against Kv 1.5 of 98.2%.
In the case of `Nc1ccc(-c2nc(NCc3ccccn3)c3c(-c4ccccc4)cccc3n2)cn1` [Example 32], the inhibition at 0.3 µM against Kv 1.5 worked out at 53.1%.
On the same count and under the same terms, then `Clc1nc(NCc2ccccc2)c2c(-c3ccccc3)cccc2n1` [Example 42], with 96.4%; and `c1ccc(-c2nc(NCc3ccccn3)c3c(-c4ccccc4)cccc3n2)cc1` [Example 50], with 96.1%.
Same read-out and setting: under `Fc1ccc(CNc2nc(Cl)nc3cccc(-c4ccccc4)c23)nc1` [Example 110] stands 51.8%.
The compound `NS(=O)(=O)c1cncc(-c2nc(NCc3ccccn3)c3c(-c4ccccc4)cccc3n2)c1` [Example 7, 5-(5-Phenyl-4-(pyridin-2-ylmethylamino)quinazolin-2-yl)pyridine-3-sulfonamide] yielded an inhibition at 0.3 µM at Kv 1.5 of 95.7%. Further, at JAK2, the 50% inhibitory concentration (IC50) was at least 50 µM. Besides, in data set [1], the brain penetration entry is “surprisingly low degree of brain penetration across species”.
As for `Clc1nc(NCc2ccccn2)c2c(-c3ccccc3)cccc2n1` [Example 19], the inhibition at 50 µM on ABL1 turned out to be 32.4%. The IC50 amounted to 10.1 µM on Flt3; 17.6 µM at IGF1R (first section of Table 4, read-out: LLE IGF1R (IC50)); 17.6 µM on IGF1R (second section of Table 4, read-out: LLE_IGF1R (IC50)); 17.8 µM at JAK2; 33.8 µM at PIM1 (first section of Table 4, read-out: LLE PIM1 (IC50)); 33.8 µM at PIM1 (third section of Table 4, read-out: LLE_PIM1 (IC50)). For the same compound, the IC50 on BTK was determined as 19.2 µM; at CK2A2, 25.5 µM; on JAK3, 23.8 µM; at GSK3B, 5.15 µM; on IRAK-4, 18.7 µM; at TPL2, 11.9 µM.
For the compound `COc1cccc(CNc2nc(Cl)nc3cccc(-c4ccccc4)c23)c1` [Example 134], the inhibition at 0.3 µM against Kv 1.5 was found to be 98.4%.
`c1ccc(-c2cccc3nc(-c4cncnc4)nc(NCc4ccccn4)c23)cc1` [Example 1, 5-Phenyl-N-(pyridin-2-ylmethyl)-2-(pyrimidin-5-yl)quinazolin-4-amine]: the concentration for half-maximal inhibition (IC50) is 23.9 µM at JAK2 and at least 50 µM on TAK1.
